# Laboratory results: patent publication US6359129B1, “Amino acid-derived, 7-membered cyclic sulfamides and methods of synthesizing the same” (University of Kansas, priority 2000, dated 2002)
# Columns and labels:
# Format in all cases: biochemical
# [1] = molecular target: Herpes Simplex Virus Protease (Human herpesvirus 1, UniProt P10210); test: Inhibition of Herpes Simplex Virus Protease; details: compound tested at 200 μmolar
# Description: The inhibition of Herpes Simplex Virus Protease by the compound shown in Scheme R was determined according to the procedure described by Waxman et al., Antiviral Chemistry and Chemotherapy, 11:1-22 (1999); Qiu et al., Proteases of Infectious Agents, Academic Press, 93-115 (1999); and U.S. Pat. No. 6,008,033, each incorporated by reference herein.
# The compound was tested at a concentration of 200 μmolar. [drawing 25]
# HIV protease = molecular target: T1, HIV protease (Human immunodeficiency virus type 1 group M subtype B, UniProt P04585); test: Inhibition of HIV protease; details: compound at 99 μmolar
# T1 construct: a key virally encoded protease enzyme of the pol gene
# Description: The inhibition of HIV protease by the compounds shown in Scheme S (99 μmolar), Scheme T (99 μmolar), and Scheme U (99 μmolar) was determined following the procedure described by Maschera et al., Human Immunodeficiency Virus: Mutations in the Viral Protease that Confer Resistance to Saquinavir Increase the Dissociation Rate Constant for the Protease-Saquinavir Complex, J. Biol. Chem., 271:33231-35 (1996), incorporated by reference herein. [drawing 26] [drawing 27] [drawing 28]
# human cathepsin K = molecular target: T2, human cathepsin K (Homo sapiens, UniProt P43235); test: Inhibition of human cathepsin K (fluorogenic peptide assay); details: compound at 106 μmolar; pH 5.5, 10 μmolar peptide, 32° C.
# T2 sequence (P43235 115-329): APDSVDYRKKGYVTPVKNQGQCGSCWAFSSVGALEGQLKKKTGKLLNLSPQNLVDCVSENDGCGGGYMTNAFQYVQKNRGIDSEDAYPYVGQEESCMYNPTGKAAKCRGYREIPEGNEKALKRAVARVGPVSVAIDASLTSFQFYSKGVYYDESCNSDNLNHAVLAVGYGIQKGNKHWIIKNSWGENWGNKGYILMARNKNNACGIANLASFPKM
# Description: The inhibition of human cathepsin K by the compounds shown in Schemes V (106 μmolar) and W (106 μmolar) was determined. [drawing 29] [drawing 30]
# The peptides utilized were chromophoric Z-Phe-Arg-pNA*HCl and fluorogenic Z-Phe-Arg-AMC (each available from BACHEM Bioscience, Inc.). Stock solutions were prepared with 100% dimethylsulfoxide (DMSO) and stored at −20° C.
# The final assay conditions were 100 mM NaOAc, pH of 5.5, 10 mM (R,R)-dithiothreitol (DTT), 10% DMSO, 120 mM NaCl, 10 μmolar of the peptide, and 12.5-0.012 μmolar inhibitor in twofold serial dilutions from 20× stocks in 100% DMSO. The enzyme working solution was a 1:3000 dilution of […] human cathepsin K into 100 mM of NaOAc, pH of 5.5, 10 mM DTT, 1.2 M NaCl.
# Serial dilutions were performed in 100% DMSO. Columns 2-12 of an intermediate plate were filled with […] of 100% DMSO and column 1 was filled with […]. Next, […] of a 10 mM solution was added to column 1. […] The fluorescence was monitored every 6 minutes for 72 minutes using a CytoFluor Series 4000 PerSeptive Biosystems multi-well fluorescence plate reader with the following settings: gain=50; 20 reads/well; 32° C.; lex=360±20 nm; and lem=440±20 nm.
# Herpes Simplex Virus Protease, sequence (P10210 1-247): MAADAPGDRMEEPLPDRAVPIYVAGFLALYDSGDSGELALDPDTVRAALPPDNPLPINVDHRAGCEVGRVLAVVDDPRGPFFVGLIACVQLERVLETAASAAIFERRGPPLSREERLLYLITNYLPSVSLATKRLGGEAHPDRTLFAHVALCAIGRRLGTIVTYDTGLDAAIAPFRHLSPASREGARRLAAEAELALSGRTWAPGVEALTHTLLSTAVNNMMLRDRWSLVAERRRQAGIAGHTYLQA
SMILES,inhibition at 99 µM (HIV protease),inhibition at 106 µM (human cathepsin K),other results
COC(=O)C(Cc1ccccc1)N1CC(O)C(O)CN(Cc2ccccc2)S1(=O)=O (stereo not drawn) [Scheme R],–,–,inhibition at 200 µM [1]: 20.5%
COC(=O)C(Cc1ccccc1)N1CC(O)C(O)CN(C(Cc2ccccc2)C(=O)OC)S1(=O)=O (stereo not drawn) [Scheme T],22%,–,–
CC(C)CC(COCc1ccccc1)N1CC=CCN(C(COCc2ccccc2)CC(C)C)S1(=O)=O (stereo not drawn) [Scheme S],96%,–,–
CC(C)CC(C(=O)NO)N1CC=CCN(C(CC(C)C)C(=O)NO)S1(=O)=O (stereo not drawn) [Scheme W],–,14%,–
COC(=O)C(Cc1ccccc1)N1CC(O)C(O)CN(Cc2ccccc2)S1(=O)=O (stereo not drawn) [Scheme U],21%,–,–
CC(C)CC(COCc1ccccc1)N1CC=CCN(C(COCc2ccccc2)CC(C)C)S1(=O)=O (stereo not drawn) [Scheme V],–,20%,–
